{"source": "patent US20130090471A1", "about": "“METHOD FOR DETECTING COMPOUNDS THAT MODULATE THE CHOLESTEROL METABOLISM” (priority 2010, published 2013)", "type_in_all_cases": "cell-based, Saccharomyces cerevisae", "key": {"[1]": {"system": "yIM126-pIM580-CYP27A1 yeast", "assay": "Test for restoration of growth on a YPG agar containing syringomycin E inoculated with a cholesterol-producing strain", "details": "syringomycin E 250 ng/ml, 48 h to 72 h at 30° C.", "description": "The yIM126 yeasts containing the expression plasmids for DHCR24 with or without P450 are cultured in YNB medium, 2% glucose, adenine at 100 μg/ml for 48 h at 30° C. and then in Käppeli medium for 24 h at 30° C. as described above.\n(§1) The yeast suspensions are diluted to an optical density at 600 nm of 0.005 unit ( 1/200) in YNB medium in order to inoculate a YPG agar containing syringomycin E at a dose that is toxic for the strain, i.e. 160 ng/ml for yIM126 containing the pIM582 plasmid, or 250 ng/ml for the yIM126 strain containing the pIM580 plasmid.\nThe inoculation of the agar medium is carried out by flooding its surface and immediately suctioning off the excess liquid. Products of interest are deposited on the agar surface thus inoculated, and then dried. […] Similarly, this method makes it possible to identify activators of enzymes, such as cytochromes P450, for instance CYP27A1, which catabolize cholesterol.\nFIG. 7: Test for restoration of growth on a YPG agar containing syringomycin E inoculated with a cholesterol-producing strain.\nThe surface of a YPG agar medium containing syringomycin E at 250 ng/ml is inoculated with a covering of yIM126-pIM580-CYP27A1 yeast suspension. […]"}, "[2]": {"system": "yIM126 strain containing the pIM580 plasmid (with CYP27A1)", "assay": "Growth of yeasts on YPG agar containing syringomycin E", "description": "(§2) This culture medium is a rich medium of YPG agar type (YPG complete medium: yeast extract (Difco) 10 g/L, bactopeptone (Difco) 20 g/L, glucose (Merck) 20 g/L) supplemented with syringomycin E toxin from Pseudomonas syringae B-301D (Sigma #S6946) from 150 to 250 ng/ml.\n(§3) The yIM126 yeast strains containing an expression vector for DHCR24 and cytochrome P450 such as pIM580, described previously, are cultured for 48 h with shaking at 30° C. in a YNB medium (yeast nitrogen base w/o amino acids (Difco) 6.7 g/L, glucose (Merck) 20 g/L) supplemented with 2% glucose and adenine at 100 μg/ml.\n(§4) The culture reaches an optical density at 600 nm of about 7 units. The cell pellet is harvested by centrifugation and transferred into an identical volume of Käppeli medium containing […], 2% glucose and 100 μg/ml of adenine, and shaken at 30° C. for 24 h, reaching an optical density at 600 nm of about 40 units.\n(§5) The cultures are diluted to 1 unit of optical density at 600 nm and then to 1/50 and then 25-fold dilutions in order to perform a drop test on YPG agars containing syringomycin E according to the methods known to those skilled in the art.\n(§6) The toxicity of this YPG medium containing syringomycin E depends on the amount of cholesterol available in the yeast, observed by GC/FID or GC/MS.\nas §1\n(§7) FIG. 6: Test for growth of various strains producing and/or catabolizing cholesterol on a YPG agar containing syringomycin E (SRG): Yeast culture dilutions deposited on a YPG agar without syringomycin E(6A) or with syringomycin E at 170 ng/ml (6B); Dilution OD at 600 nm from top to bottom: 0.02/0.0008/[…]."}, "[3]": {"system": "yIM126 containing the pIM582 plasmid (without P450)", "assay": "Growth of yeasts on YPG agar containing syringomycin E", "description": "as §2, §3, §4, §5, §6, §1, §7"}, "[4]": {"details": "2 μl of product at 0.1 mg/ml deposited"}, "[5]": {"details": "2 μl of product at 1 mM deposited"}, "[6]": {"details": "YPG agar, inoculated at OD 600 nm 0.005"}, "[7]": {"details": "syringomycin E at 170 ng/ml, 48 h to 72 h at 30° C."}}, "note": "Positions of bridges follow the written chain, without caps; N, C: chain ends. Non-standard residues stand in square brackets, D forms with d. Residues, ends and D or L forms follow the SMILES beside them. *: point of attachment. Asp(3S-OH) = N[C@H](C(=O)O)[C@H](O)C(=O)O; Thr(4-Cl) = N[C@H](C(=O)O)[C@H](O)CCl; X1 = CCCCCCCCC[C@@H](O)CC(=O)*; dDab = NCC[C@@H](N)C(=O)O; Dab = NCC[C@H](N)C(=O)O; Dhb = C/C=C(\\N)C(=O)O"}
{"smiles": "C[C@@H](CO)CCC[C@@H](C)[C@H]1CC[C@H]2[C@@H]3CC=C4C[C@@H](O)CC[C@]4(C)[C@H]3CC[C@]12C", "note": "[27OH-cholesterol]", "values": [{"measurement": "area of protection with respect to the toxicity of the syringomycin E contained in the agar", "setting": "[1]; [4]", "result": "induces an area of protection"}]}
{"smiles": "Clc1ccccc1CNCC1CCC(CNCc2ccccc2Cl)CC1", "note": "(stereo not drawn) [AY9944]", "values": [{"measurement": "restoration of growth (yeast growth halos around the deposits) on medium which is initially toxic", "setting": "[1]; [5]", "result": "verified"}]}
{"smiles": "CCN(C/C=C\\c1ccc(C2CCCCC2)c(Cl)c1)C1CCCCC1", "note": "[SR31747]", "values": [{"measurement": "restoration of growth (yeast growth halos around the deposits) on medium which is initially toxic", "setting": "[1]; [5]", "result": "verified"}]}
{"smiles": "CCC(C)(C)c1ccc(CC(C)CN2C[C@@H](C)O[C@@H](C)C2)cc1", "note": "(stereo partly drawn) [amorolfine]", "values": [{"measurement": "restoration of growth (yeast growth halos around the deposits) on medium which is initially toxic", "setting": "[1]; [4]", "result": "verified"}]}
{"smiles": "CC(C)CCC[C@@H](C)[C@H]1CC[C@H]2[C@@H]3CC=C4C[C@@H](O)CC[C@]4(C)[C@H]3CC[C@]12C", "note": "[cholesterol]", "values": [{"measurement": "area of protection with respect to the toxicity of the syringomycin E contained in the agar", "setting": "[1]; [4]", "result": "induces an area of protection"}]}
{"smiles": "C/C=C1\\NC(=O)[C@H](Cc2ccccc2)NC(=O)[C@H](CCCN=C(N)N)NC(=O)[C@@H](CCN)NC(=O)[C@H](CCN)NC(=O)[C@@H](CO)NC(=O)[C@@H](NC(=O)C[C@H](O)CCCCCCCCC)COC(=O)[C@H]([C@H](O)CCl)NC(=O)[C@H]([C@H](O)C(=O)O)NC1=O", "note": "[syringomycin E] (X1-S[dS][Dab][dDab]RF[Dhb][Asp(3S-OH)][Thr(4-Cl)]; ester 1-C)", "values": [{"measurement": "dose that is toxic for the strain", "setting": "[2]; [6]", "result": 250, "unit": "ng/mL"}, {"measurement": "growth of the yeasts in drop test", "setting": "[2]; [7]", "result": "capable of growing"}, {"measurement": "dose that is toxic for the strain", "setting": "[3]; [6]", "result": 160, "unit": "ng/mL"}, {"measurement": "growth of the yeasts in drop test", "setting": "[3]; [7]", "result": "not capable of growing"}]}
